The values that follow are results of earlier work, collected in US6951877B2, “Materials and methods for treating hypercholesterolemia” (ARYx Therapeutics, Inc., priority 2002, dated 2005).

The test system of series [1] is patients.
Series [2] concerns patients. The source holds these as a separate data set.
Series [3] has as its system asymptomatic, middle-aged men with primary hypercholesterolemia.

Where two headings read alike, the source gives them in different places.

For the molecule `CC(C)c1c(C(=O)Nc2ccccc2)c(-c2ccccc2)c(-c2ccc(F)cc2)n1CC[C@@H](O)C[C@@H](O)CC(=O)O` [atorvastatin], the figures for the “patients with elevated liver enzymes” value in the series on patients [1] (40 mg), in the series with patients [1] (80 mg) and in the series on patients [1] (doses of 10 or 20 mg) were 0.6%, 2.3% and 0.2%, respectively.

On to `COCc1c(C(C)C)nc(C(C)C)c(/C=C/[C@@H](O)C[C@@H](O)CC(=O)O)c1-c1ccc(F)cc1` [cerivastatin], for which the “U.S. deaths due to severe rhabdomyolysis reported to FDA” value in the series with patients [2] (all reports associated with use of cerivastatin) is 31; in the series on patients [2] (concomitant gemfibrozil use) it was 12.

For `Cc1ccc(C)c(OCCCC(C)(C)C(=O)O)c1` [gemfibrozil], the “reduction in CHD risk” value in series [3] (over the 5-year follow-up period) is 34%. Besides, in series [3] (treatment with gemfibrozil), the HDL cholesterol result is reported as “increased HDL cholesterol” and the LDL cholesterol entry is reported as “lowered LDL, cholesterol”.
